One molecule from US11472807B2, “Purine derivatives for use as medicament and for use in treating neurodegenerative or neuro-inflammatory disorders” (COMMISSARIAT À L'ENERGIE ATOMIQUE ET AUX ENERGIES …, priority 2017, dated 2022) can be followed below.

Structures are written as SMILES.

Experiment [1] has as its system IGF-1R (insulin growth factor receptor 1). Briefly: IGF-1R mRNA in OHSC (RT-qPCR). The note with it: 50 μM for 10 days, P=0.0845. It counts as cell-based, mice. On the procedure: FIG. 12. Plots illustrating the effect of Aftin-5 on relative mRNA expression levels of murine insulin-like growth factor-1 receptor (IGF1-R; (A)) and murine insulin receptor (Insr; (B)) in organotypic hippocampal slice cultures (OHSC). OHSC culture media of OHSC were replaced by incubation medium containing Aftin-5 (50 μM; A50) or vehicle (0.1% DMSO; Veh). 10 days later, total mRNA in lysate was isolated and purified, cDNAs were then synthesized from […] of total mRNA. cDNAs were amplified by quantitative RT-PCR and the relative expression of specific genes was normalized to the housekeeping gene HPRT1 (2^−ΔCt) Mann-Whitney tests were performed and *p<0.05 indicates significant differences between Aftin-5 and control conditions. Data expressed as means+/−SEM from q=3 independent experiments with n=4-6 inserts/condition and 10 slices/insert. […]
The impact of Aftin-5 on gene expression of different biomarkers was determined by measuring mRNA levels of selected BDNF, CREB, PS95, INS Receptor/IGF-1 receptor, IL-1β, IL-6 in OHSC treated chronically with Aftin-5 or in a total brain from mice exposed to Aftin-5 at either 8 or 30 mg/Kg. […] Threshold cycles (Ct) of target gene and cyclophilin A (Ppia−control housekeeping gene) were recorded and gene expression was calculated as 2^−ΔΔCt(ΔΔCt=ΔCttreated−ΔCtcontrol, ΔCt=Cttarget−CtPpia). […]

The test system of experiment [2] is non-spatial medium-term memory. The experiment is described as follows: Novel object recognition (NOR) test. The note with it: WT mice, 8 mg/kg subcutaneous, 28 days. The experiment is classed as in vivo, C57Bl/6J mice. The procedure: FIG. 14. Plots illustrating the effect of Aftin-5 on non-spatial medium-term memory. C57B1/6J mice were exposed sub-cutaneously to (A) the vehicle condition (DMSO/PEG) or (B) Aftin-5 at 8 mg/kg, during 28 days through an Alzet pump. 3-4 weeks later, cognitive abilities were assessed through different novel object recognition (NOR) tests, including the recognition of familiar objects (dark gray bars) or novel objects (light gray bars). Two-way ANOVA and Bonferroni post-hoc tests were performed and *p<0.05 indicates significant differences between Aftin-5 and control conditions, **p<0.01. Data expressed as means+/−SEM with n=15 mice/condition.
The NOR test is a test to assess the medium-term non-spatial memory (object). This test takes place in 3 sessions: the Open Field, the Familiarization session and the Test session. The first session allows the habituation of the mouse to the arena. The mouse is placed in the empty arena for 15 min. During this session, the velocity, locomotor activity and anxiety of the mouse are checked. The second session is to familiarize the animal with objects. For this, 24 hours after the Open Field, the mouse is placed in the arena containing two identical objects. The mouse will explore the arena and the two objects placed in the center for 10 min. Finally, after an interval of pre-established time (24 hours), the mouse is placed again in the same arena. […]

The next experiment has as its system CREB. Briefly: CREB mRNA in OHSC (RT-qPCR). It counts as cell-based. The note with it: OHSCs from WT mice, 50 μM, 10 days. On the procedure: FIG. 15. Plots illustrating the effect of Aftin-5 on relative mRNA expression levels of Long Term Potentialisation (LTP) biomarkers, i.e CREB (A), PSD95 (B) and BDNF (C) in C57B16J OHSC mice treated chronically with Aftin-5. OHSC culture media of OHSC were replaced by incubation medium containing Aftin-5 (50 μM; A50) or vehicle (0.1% DMSO; Veh). 10 days later, total mRNA in lysate was isolated and purified, cDNAs were then synthesized from […] of total mRNA. cDNAs were amplified by quantitative RT-PCR and the relative expression of specific genes was normalized to the housekeeping gene HPRT1 (2^—ΔCt). […] Data expressed as means+/−SEM from q=3 independent experiments with n=4-6 inserts/condition and 10 slices/insert. […]
The impact of Aftin-5 on gene expression of different biomarkers was determined by measuring mRNA levels of selected BDNF, CREB, PS95, INS Receptor/IGF-1 receptor, IL-1β, IL-6 in OHSC treated chronically with Aftin-5 or in a total brain from mice exposed to Aftin-5 at either 8 or 30 mg/Kg. […] RNA concentration was measured spectrophotometrically at 260 nm in a NanoDrop 2000c (Thermo Scientific, Villebon-sur-Yvette, France) (sample A260 nm/A280 nm ratios over 1.8 indicated reduced genomic DNA contamination). cDNAs were synthesized from 0.5 μg of total RNA with RT^2 First Strand kit (Qiagen, Courtaboeuf, France) according to the manufacturer's protocol and stored at −80° C. […]
In general terms: Real-time PCR tracks product formation cycle by cycle.

The test system of another experiment is GSK-3β. Briefly: GSK-3β activity in organotypic slice cultures from transgenic mice overexpressing phosphorylated Tau. It counts as cell-based. An excerpt:
Unpredictably, Aftin-5 is shown herein to efficiently promote an attenuation of the phosphorylation of Tau protein (see example 5).

Regarding `CC[C@H](CO)Nc1nc(N(C)c2ccccc2)c2ncn(C(C)C)c2n1` [Aftin-5], the “IGF-1R mRNA” value in experiment [1] is recorded as “tend to increase”. For the same molecule, the “improvement of long term object recognition memory in NOR test” value in experiment [2] is given as “does not achieve significance”. The “CREB mRNA” value with CREB is “transcriptional upregulation”. Besides, the “activity of GSK-3β” value with GSK-3β is “reduces”.
